Residues, ends and D or L forms follow the SMILES beside them.
How the values were obtained:
[1] = system: Gram-positive bacteria (Staphylococcus aureus); type: cell-based; details: for Antimicrobial Activities (MIC) S. aureus: Gram-positive bacteria, 24 h
Procedure: (§1) Regarding the antimicrobial peptides (samples 1 to 12) and the peptide of comparative sample 1 related to the present invention, their antimicrobial activities (minimum inhibitory concentration: MIC) against Gram-negative bacteria (Escherichia coli) and Gram-positive bacteria (Staphylococcus aureus) were determined, as described below, by liquid medium dilution method using a 96-well microplate. […] The prepared liquid broth media containing the peptide at each concentration described above were then loaded onto 96-well microplates in 100-μL aliquots. At the same time, the tested bacteria cultured for 18 hours at 37° C. on an agar plate (“Muller Hinton Agar” manufactured by DIFCO) were collected by scraping with a loop, and then suspended in sterilized physiological saline. 5 μL of bacterial suspension prepared to be equivalent to 2×10^7 cells/mL was inoculated (number of bacteria to be tested: approximately 1×10^6 cells/mL) into each well of the above-described microplate filled with the liquid broth media containing the peptide at each concentration. After inoculation, the microplate was then incubated in an incubator at 37° C., and the presence of bacteria was evaluated based on the turbidity after 24 hours. The minimum drug concentration (polypeptide concentration), at which no increase in bacterial turbidity was detected at the time of measurement, was defined as MIC (minimum inhibitory concentration) (unit: μM) in the present embodiment.

[2] = system: Gram-negative bacteria (Escherichia coli); type: cell-based; details: for Antimicrobial Activities (MIC) E. coli: Gram-negative bacteria, 24 h
Procedure: as §1

CC[C@H](C)[C@H](NC(=O)[C@H](Cc1c[nH]cn1)NC(=O)[C@H](CCC(N)=O)NC(=O)[C@H](CC(C)C)NC(=O)[C@@H](N)CO)C(=O)N[C@@H](CS)C(=O)N[C@@H](CCCNC(=N)N)C(=O)N[C@H](C(=O)N[C@H](C(=O)N[C@H](C(=O)N[C@@H](CS)C(=O)N[C@@H](CC(N)=O)C(=O)N[C@@H](CS)C(=O)N[C@H](C(=O)N[C@H](C(N)=O)[C@@H](C)O)[C@@H](C)O)[C@@H](C)CC)C(C)C)[C@@H](C)O [Sample 7, SLQHICRTVICNCTT] (H-SLQHICRTVICNCTT-NH2)
Antimicrobial Activities (MIC) S. aureus [1]: 50 µM

CC[C@H](C)[C@H](NC(=O)[C@H](Cc1ccc(O)cc1)NC(=O)[C@H](CCC(N)=O)NC(=O)[C@H](CC(C)C)NC(=O)[C@@H](N)CO)C(=O)N[C@@H](CS)C(=O)N[C@@H](CCCNC(=N)N)C(=O)N[C@@H](C)C(=O)N[C@H](C(=O)N[C@H](C(=O)N[C@@H](CS)C(=O)N[C@@H](CCCNC(=N)N)C(=O)N[C@@H](CS)C(=O)N[C@H](C(=O)N[C@H](C(N)=O)[C@@H](C)O)[C@@H](C)O)[C@@H](C)CC)C(C)C [Sample 8, SLQYICRAVICRCTT] (H-SLQYICRAVICRCTT-NH2)
Antimicrobial Activities (MIC) S. aureus [1]: 50 µM

H-SLQHLCRFRIRQLVR-NH2 [Sample 9, SLQHLCRFRIRQLVR]
Antimicrobial Activities (MIC) S. aureus [1]: 12.5 µM

H-SLQYLCRFVIRQYTR-NH2 [Sample 2, SLQYLCRFVIRQYTR]
Antimicrobial Activities (MIC) S. aureus [1]: 6.25 µM | Antimicrobial Activities (MIC) E. coli [2]: 25 µM

H-TLLSLCRVAVRRALG-NH2 [Sample 4, TLLSLCRVAVRRALG]
Antimicrobial Activities (MIC) S. aureus [1]: 1.56 µM | Antimicrobial Activities (MIC) E. coli [2]: 6.25 µM

H-TLQHLCRKTVNGHLD-NH2 [Sample 6, TLQHLCRKTVNGHLD]
Antimicrobial Activities (MIC) S. aureus [1]: 50 µM

H-TLKKRCLQVVRKLVK-NH2 [Sample 5, TLKKRCLQVVRKLVK]
Antimicrobial Activities (MIC) S. aureus [1]: 3.13 µM | Antimicrobial Activities (MIC) E. coli [2]: 3.13 µM

CC(C)C[C@H](NC(=O)[C@H](CS)NC(=O)[C@H](CCCNC(=N)N)NC(=O)[C@H](CCC(=O)O)NC(=O)[C@H](CCCCN)NC(=O)[C@H](CC(C)C)NC(=O)[C@@H](N)[C@@H](C)O)C(=O)N[C@@H](CCC(N)=O)C(=O)N[C@H](C(=O)N[C@H](C(=O)N[C@@H](CCCNC(=N)N)C(=O)N[C@@H](CO)C(=O)N[C@@H](CC(C)C)C(=O)N[C@H](C(=O)N[C@@H](CCCCN)C(N)=O)C(C)C)C(C)C)C(C)C [Sample 1, TLKERCLQVVRSLVK]
Antimicrobial Activities (MIC) S. aureus [1]: 3.13 µM | Antimicrobial Activities (MIC) E. coli [2]: 6.25 µM

H-SLTHLCRLEIRSSIK-NH2 [Sample 12, SLTHLCRLEIRSSIK]
Antimicrobial Activities (MIC) S. aureus [1]: 25 µM

H-SLKHLCRKALRSFLT-NH2 [Sample 10, SLKHLCRKALRSFLT]
Antimicrobial Activities (MIC) S. aureus [1]: 12.5 µM

H-SLQHICRMSIRRVMS-NH2 [Sample 3, SLQHICRMSIRRVMS]
Antimicrobial Activities (MIC) S. aureus [1]: 6.25 µM | Antimicrobial Activities (MIC) E. coli [2]: 12.5 µM

H-PLAHLCRLRVRKAIG-NH2 [Sample 11, PLAHLCRLRVRKAIG]
Antimicrobial Activities (MIC) S. aureus [1]: 12.5 µM

H-TLHQQCIRVLKNNID-NH2 [Comparative Sample 1, TLHQQCIRVLKNNID, reference compound]
Antimicrobial Activities (MIC) S. aureus [1]: >200 µM | antimicrobial activity (in words), S. aureus ([1]; summary of Table 2): no antimicrobial activity was detected | Antimicrobial Activities (MIC) E. coli [2]: >200 µM | antimicrobial activity (in words), E. coli ([2]; summary of Table 2): no antimicrobial activity was detected
